Broadly, the IC50 is the midpoint of a concentration-inhibition curve.

A value given as a limit tells only on which side of the number the result lay.

Sequence of Mitogen-activated protein kinase kinase kinase kinase 1 (Q92918 whole entry, the tested form may be a part): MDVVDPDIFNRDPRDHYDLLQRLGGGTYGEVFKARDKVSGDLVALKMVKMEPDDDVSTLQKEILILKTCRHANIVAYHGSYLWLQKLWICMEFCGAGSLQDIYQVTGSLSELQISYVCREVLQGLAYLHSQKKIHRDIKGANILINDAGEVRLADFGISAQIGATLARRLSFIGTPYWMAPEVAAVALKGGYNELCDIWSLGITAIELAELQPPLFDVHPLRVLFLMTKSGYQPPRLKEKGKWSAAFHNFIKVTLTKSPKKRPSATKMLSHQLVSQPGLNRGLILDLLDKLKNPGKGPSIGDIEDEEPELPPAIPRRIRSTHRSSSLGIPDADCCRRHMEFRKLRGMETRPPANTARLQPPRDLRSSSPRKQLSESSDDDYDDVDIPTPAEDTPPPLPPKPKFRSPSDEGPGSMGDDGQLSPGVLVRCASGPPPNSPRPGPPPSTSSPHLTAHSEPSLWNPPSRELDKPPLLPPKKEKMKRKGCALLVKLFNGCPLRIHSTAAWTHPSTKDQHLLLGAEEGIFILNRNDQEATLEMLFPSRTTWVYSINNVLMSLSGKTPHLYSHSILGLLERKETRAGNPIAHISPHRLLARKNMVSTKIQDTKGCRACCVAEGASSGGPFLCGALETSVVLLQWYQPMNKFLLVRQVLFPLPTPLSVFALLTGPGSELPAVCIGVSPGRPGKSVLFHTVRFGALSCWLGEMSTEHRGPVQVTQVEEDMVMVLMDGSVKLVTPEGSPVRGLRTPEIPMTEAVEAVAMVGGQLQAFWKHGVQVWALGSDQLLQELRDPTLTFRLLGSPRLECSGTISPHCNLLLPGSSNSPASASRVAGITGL

This assay deals with Mitogen-activated protein kinase kinase kinase kinase 1 (Homo sapiens, UniProt Q92918). Put plainly: HPK1 Kinase Assay (Biochemical Assay). As for the experimental part:
A recombinant fusion protein consisting of full-length human HPK1 (MAP4K1) with an N-terminal Glutatione S-transferase (GST) tag was produced in insect cells Sf21 using the baculovirus expression system. GST-HPK1 protein was purified from cell lysates by glutathione Sepharose affinity chromatography. The assay is run in three continuous steps: 1) the HPK1 enzymatic kinase reaction, 2) an ATP depletion, and 3) the ADP detection, the steps 2 and 3 are performed with ADP-Glo Kinase Assay kit from Promega (V9101). […] After 120 minutes, the reaction was stopped by adding 5 μL of ADP-Glo reagent (Promega, V9101) and incubating for 40 min. in the dark at 23 C. To determine the level of ADP, 10 μl ADP-Glo Detection solution was added and incubated for 1 hour at 23 C. in the dark.
`Cc1c(N2CCc3cnc(Nc4cc5n(n4)CC(=O)N(C(C)C)CC5)nc3C2)cnc2c1NCCO2` [US20240025922, Example 89] displayed an IC50 above 1000 nM.
To `COc1cccc(F)c1N1CCc2cnc(Nc3cnc4c(c3)CN(C)CC4)nc2C1` [US20240025922, Example 120] belongs below 100 nM.
To `Cc1cc(Nc2cc3c(cn2)CCN(c2cnc4c(c2Cl)NCCO4)C3)nn1CC(=O)N(C)C` [US20240025922, Example 131] belongs above 1000 nM.

The values are drawn from BindingDB's records for patent US20240025922 (Merck Patent, 2024).
